Results published in ChEMBL document CHEMBL5260850, “The exploration of aza-quinolines as hematopoietic prostaglandin D synthase (H-PGDS) inhibitors with low brain exposure” (Bioorg Med Chem, 2020).
Values after ≈ are worked out from the molar mass of the structure shown. Active and inactive are the calls of the source. The rule behind the calls is not given here.

What was measured:
[1] = Ratio of drug level in muscle to plasma in C57BL/6N mouse administered orally for 10 mins prior to unilateral eccentric contraction and QD for 16 days thereafter; type: toxicity, cell-free, Muscle tissue/plasma; conditions: route po, time 16 day
[2] = Inhibition of m-PGES (unknown origin); set-up: species or system Homo sapiens
[3] = target: Prostaglandin G/H synthase 2 (Homo sapiens) (UniProt P35354); conditions: dose <= 10000.0 nM
Description: Inhibition of COX-2 (unknown origin) upto 10000 nM

[4] = Ratio of drug level in muscle to plasma in C57BL/6N mouse administered orally for 10 mins prior to unilateral eccentric contraction and QD for 43 days thereafter; type: toxicity, cell-free, Muscle tissue/plasma; conditions: route po, time 43 day
[5] = Half life in mouse liver microsomes pretreated for 5 mins followed by incubation with NADP for 30 secs and measured upto 45 mins by LC-MS/MS analysis; type: ADME, Microsome; conditions: time 3030 sec
[6] = Toxicity in dog assessed as decreased cortical lymphoid cellularity in thymus at 75 mg/kg/day, po QD for 4 days by microscopic analysis; type: organism-based, Canis lupus familiaris; conditions: in vivo, 96 h, time 4 day
[7] = Clearance in mouse at 1 mg/kg, iv; type: ADME, organism-based; conditions: in vivo
[8] = target: Voltage-dependent L-type calcium channel subunit alpha-1C (Homo sapiens, UniProt Q13936); assay: Inhibition of Cav1.2 channel (unknown origin) upto 10000 nM; conditions: 10 µM
[9] = Toxicity in Wistar Han rat assessed as morphological changes in heart at 30 mg/kg/day, po administered QD for 7 days by microscopic analysis; type: organism-based; conditions: in vivo, 168 h, time 7 day
[10] = Apparent permeability, Papp of the compound at pH 7.4 incubated for 3 hrs by AMP based liquid chromatography; type: ADME; conditions: not told
[11] = target: Sodium channel protein type 5 subunit alpha (Homo sapiens, UniProt Q14524); assay: Inhibition of Nav1.5 channel (unknown origin) upto 10000 nM; conditions: 10 µM
[12] = Cmax in dog at 75 mg/kg/day, po QD for 4 days; type: ADME, organism-based, Canis lupus familiaris; set-up: dose 75 mg/kg/day, time 4 day, route po; conditions: in vivo
[13] = target: Albumin (Homo sapiens, UniProt P02768); assay: Protein binding in human serum albumin by HPLC analysis; type: ADME, cell-free; conditions: read-out: PB (converted)
[14] = target: Hematopoietic prostaglandin D synthase (Homo sapiens, UniProt O60760); assay: Inhibition of human H-PGDS expressed in Escherichia coli BL21 DE3 cells assessed as reduction in PGD2 production using PGH2 as substrate by RapidFire High Throughput Mass spectrometry
[15] = AUC in dog at 75 mg/kg/day, po QD for 4 days; type: ADME, organism-based, Canis lupus familiaris; set-up: time 4 day, dose 75 mg/kg/day, route po; conditions: in vivo
[16] = target: cGMP-inhibited 3',5'-cyclic phosphodiesterase 3A (Homo sapiens) (UniProt Q14432); conditions: dose <= 10000.0 nM
Description: Inhibition of PDE3A (unknown origin) upto 10000 nM

[17] = Toxicity in dog assessed as clinical pathological changes by measuring increase in hepatobiliary parameters at 75 mg/kg/day, po QD for 4 days; type: organism-based, Canis lupus familiaris; conditions: in vivo, 96 h, time 4 day
[18] = Toxicity in LPS-treated C57BL6/N mouse assessed as seizures administered orally with compound and 1 hr later treated with LPS and measured after 30 mins; conditions: in vivo, po, 1.5 h
[19] = AUC in dog at 10 mg/kg/day, po QD for 4 days; type: ADME, organism-based, Canis lupus familiaris; set-up: dose 10 mg/kg/day, time 4 day, route po; conditions: in vivo
[20] = Solubility of the compound in FaSSIF at pH 6.5 measured after 4 hrs by HPLC-UV analysis; type: ADME
[21] = Cmax in Wistar Han rat at 10 mg/kg/day, po QD for 7 days; type: ADME, organism-based; set-up: time 7 day, dose 10 mg/kg/day, route po; conditions: in vivo
[22] = target: Alpha-1B adrenergic receptor (Homo sapiens) (UniProt P35368); conditions: dose <= 10000.0 nM
Description: Inhibition of alpha1B adrenergic receptor (unknown origin) upto 10000 nM

[23] = target: 5-hydroxytryptamine receptor 3A (Homo sapiens) (UniProt P46098); conditions: dose <= 10000.0 nM
Description: Inhibition of 5-HT3 receptor (unknown origin) upto 10000 nM

[24] = target: Alpha-2C adrenergic receptor (Homo sapiens) (UniProt P18825); conditions: dose <= 10000.0 nM
Description: Inhibition of alpha2C adrenergic receptor (unknown origin) upto 10000 nM

[25] = target: 5-hydroxytryptamine receptor 2C (Homo sapiens) (UniProt P28335); conditions: dose <= 10000.0 nM
Description: Inhibition of 5-HT2C receptor (unknown origin) upto 10000 nM

[26] = Ratio of drug level in brain to blood in mouse at 1 mg/kg, iv; type: ADME, organism-based; conditions: read-out: BBR
[27] = Toxicity in Wistar Han rat assessed as animal death at 100 mg/kg/day, po administered QD for 7 days; type: organism-based; conditions: in vivo, 168 h, time 7 day
[28] = target: Kappa-type opioid receptor (Homo sapiens) (UniProt P41145); conditions: dose <= 10000.0 nM
Description: Inhibition of kappa opioid receptor (unknown origin) upto 10000 nM

[29] = target: 3',5'-cyclic-AMP phosphodiesterase 4B (Homo sapiens) (UniProt Q07343); conditions: dose <= 10000.0 nM
Description: Inhibition of PDE4B (unknown origin) upto 10000 nM

[30] = target: T1, Hematopoietic prostaglandin D synthase (Rattus norvegicus, UniProt O35543); assay: Inhibition of H-PGDS in rat RBL cells assessed as reduction in A23187-induced PGD2 production pretreated for 30 mins followed by A23187 addition for 30 mins by RapidFire Mass spectrometry; type: cell-based
T1 sequence (O35543 whole entry): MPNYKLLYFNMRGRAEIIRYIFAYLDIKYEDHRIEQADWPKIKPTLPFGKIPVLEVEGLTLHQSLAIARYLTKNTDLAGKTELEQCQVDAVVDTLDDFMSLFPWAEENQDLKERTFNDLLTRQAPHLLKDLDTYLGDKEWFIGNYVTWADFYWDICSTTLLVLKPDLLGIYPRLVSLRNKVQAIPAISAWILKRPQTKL

[31] = system: Mus musculus; assay: Anti-inflammatory activity against C57BL6/N mouse assessed as EC50 required for reduction in LPS-induced PGD2 level in plasma administered orally with compound and 1 hr later treated with LPS and measured after 30 mins by LC-MS/MS analysis; type: functional, organism-based; conditions: C57BL/6N
[32] = Terminal half life in dog at 0.5 mg/kg, iv; type: ADME, organism-based, Canis lupus familiaris; conditions: in vivo, read-out: beta t1/2 (converted)
[33] = target: Acetylcholinesterase (Homo sapiens) (UniProt P22303); conditions: dose <= 10000.0 nM
Description: Inhibition of AChE (unknown origin) upto 10000 nM

[34] = Toxicity in dog assessed as deterioration in clinical condition at 75 mg/kg/day, po QD for 4 days; type: organism-based, Canis lupus familiaris; conditions: in vivo, 96 h, time 4 day
[35] = Selectivity ratio of EC50 for inhibition of H-PGDS in rat RBL cells assessed as reduction in A23187-induced PGD2 production to EC50 for anti-inflammatory activity against po dosed C57BL/6J mouse assessed as reduction in compound 48/80-induced PGD2 release into peritoneal lavage fluid
[36] = Toxicity in dog assessed as body weight loss at 75 mg/kg/day, po QD for 4 days; type: organism-based, Canis lupus familiaris; conditions: in vivo, 96 h, time 4 day
[37] = Toxicity in C57BL/6N mouse assessed as seizures administered orally for 10 mins prior to unilateral eccentric contraction and QD for 43 days thereafter; conditions: in vivo, po, 1032 h, time 43 day
[38] = target: Cannabinoid receptor 1 (Homo sapiens) (UniProt P21554); conditions: dose <= 10000.0 nM
Description: Inhibition of CB1 receptor (unknown origin) upto 10000 nM

[39] = Toxicity in compound 48/80-treated C57BL/6J mouse assessed as seizures administered orally with compound and 1 hr later treated with compound 48/80 for 7 mins; conditions: in vivo, po, 1.117 h, time 67 min
[40] = target: D(1A) dopamine receptor (Homo sapiens) (UniProt P21728); conditions: dose <= 10000.0 nM
Chain of D(1A) dopamine receptor (Homo sapiens) (P21728 whole entry): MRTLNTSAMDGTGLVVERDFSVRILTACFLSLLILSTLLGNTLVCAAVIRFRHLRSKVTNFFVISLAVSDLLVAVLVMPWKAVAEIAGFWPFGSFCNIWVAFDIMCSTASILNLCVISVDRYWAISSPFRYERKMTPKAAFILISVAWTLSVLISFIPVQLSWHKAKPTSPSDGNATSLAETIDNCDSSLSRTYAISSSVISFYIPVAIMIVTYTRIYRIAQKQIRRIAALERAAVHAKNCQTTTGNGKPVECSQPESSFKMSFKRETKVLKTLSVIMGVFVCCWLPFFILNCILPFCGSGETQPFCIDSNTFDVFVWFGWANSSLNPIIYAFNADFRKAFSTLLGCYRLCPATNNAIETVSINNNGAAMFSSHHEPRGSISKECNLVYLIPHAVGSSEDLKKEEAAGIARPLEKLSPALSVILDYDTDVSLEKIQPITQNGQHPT
Description: Inhibition of dopamine D1 receptor (unknown origin) upto 10000 nM

Chain of 3',5'-cyclic-AMP phosphodiesterase 4B (Homo sapiens) (Q07343 whole entry): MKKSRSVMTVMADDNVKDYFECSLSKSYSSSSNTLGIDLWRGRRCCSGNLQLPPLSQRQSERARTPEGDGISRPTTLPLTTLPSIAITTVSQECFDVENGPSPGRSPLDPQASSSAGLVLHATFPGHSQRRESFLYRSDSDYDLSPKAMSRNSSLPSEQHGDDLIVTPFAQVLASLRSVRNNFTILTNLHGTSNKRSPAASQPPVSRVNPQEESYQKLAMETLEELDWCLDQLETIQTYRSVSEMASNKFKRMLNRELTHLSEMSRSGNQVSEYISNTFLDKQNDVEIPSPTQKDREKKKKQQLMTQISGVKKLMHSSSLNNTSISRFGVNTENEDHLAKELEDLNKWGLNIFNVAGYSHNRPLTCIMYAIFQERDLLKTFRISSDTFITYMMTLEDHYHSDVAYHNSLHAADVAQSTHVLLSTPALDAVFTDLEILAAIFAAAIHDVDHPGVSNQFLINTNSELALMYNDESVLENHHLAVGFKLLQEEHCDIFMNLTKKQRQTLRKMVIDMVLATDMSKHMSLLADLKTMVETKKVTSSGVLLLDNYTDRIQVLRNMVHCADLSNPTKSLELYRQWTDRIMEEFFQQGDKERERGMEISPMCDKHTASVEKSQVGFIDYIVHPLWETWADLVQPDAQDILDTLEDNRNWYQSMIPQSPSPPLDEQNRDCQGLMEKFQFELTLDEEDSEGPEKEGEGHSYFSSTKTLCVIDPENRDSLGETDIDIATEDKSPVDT
Chain of 5-hydroxytryptamine receptor 2C (Homo sapiens) (P28335 whole entry): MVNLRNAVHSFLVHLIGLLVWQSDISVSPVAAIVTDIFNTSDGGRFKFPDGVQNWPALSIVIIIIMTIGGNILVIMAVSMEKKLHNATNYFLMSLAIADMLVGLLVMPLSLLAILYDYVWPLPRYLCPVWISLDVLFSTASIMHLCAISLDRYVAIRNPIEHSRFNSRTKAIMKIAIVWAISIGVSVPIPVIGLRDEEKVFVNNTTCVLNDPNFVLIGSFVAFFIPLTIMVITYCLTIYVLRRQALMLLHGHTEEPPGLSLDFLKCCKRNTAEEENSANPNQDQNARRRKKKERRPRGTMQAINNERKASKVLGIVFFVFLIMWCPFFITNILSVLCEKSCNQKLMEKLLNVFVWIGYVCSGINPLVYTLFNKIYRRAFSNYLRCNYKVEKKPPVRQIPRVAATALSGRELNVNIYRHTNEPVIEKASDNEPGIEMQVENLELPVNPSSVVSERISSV
Chain of Cannabinoid receptor 1 (Homo sapiens) (P21554 whole entry): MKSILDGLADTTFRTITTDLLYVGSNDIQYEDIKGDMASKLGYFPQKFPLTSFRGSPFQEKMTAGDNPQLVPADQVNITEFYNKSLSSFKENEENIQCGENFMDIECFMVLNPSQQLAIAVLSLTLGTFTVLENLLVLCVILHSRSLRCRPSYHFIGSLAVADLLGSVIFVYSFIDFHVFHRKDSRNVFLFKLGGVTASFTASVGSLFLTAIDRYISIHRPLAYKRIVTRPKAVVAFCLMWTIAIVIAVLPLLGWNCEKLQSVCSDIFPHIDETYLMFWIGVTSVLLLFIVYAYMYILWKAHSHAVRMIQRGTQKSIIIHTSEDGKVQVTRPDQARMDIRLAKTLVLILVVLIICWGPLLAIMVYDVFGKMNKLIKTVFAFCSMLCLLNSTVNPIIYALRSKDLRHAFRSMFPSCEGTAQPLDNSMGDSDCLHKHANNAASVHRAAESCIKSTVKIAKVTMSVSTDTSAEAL
Chain of Hematopoietic prostaglandin D synthase (Homo sapiens, UniProt O60760) (O60760 whole entry): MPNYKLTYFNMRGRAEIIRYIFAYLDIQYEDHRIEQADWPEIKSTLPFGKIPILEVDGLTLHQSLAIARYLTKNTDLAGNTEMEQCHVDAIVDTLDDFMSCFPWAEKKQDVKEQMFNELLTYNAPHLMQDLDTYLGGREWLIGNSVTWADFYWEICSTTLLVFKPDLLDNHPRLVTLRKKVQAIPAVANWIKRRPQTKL
Chain of Kappa-type opioid receptor (Homo sapiens) (P41145 whole entry): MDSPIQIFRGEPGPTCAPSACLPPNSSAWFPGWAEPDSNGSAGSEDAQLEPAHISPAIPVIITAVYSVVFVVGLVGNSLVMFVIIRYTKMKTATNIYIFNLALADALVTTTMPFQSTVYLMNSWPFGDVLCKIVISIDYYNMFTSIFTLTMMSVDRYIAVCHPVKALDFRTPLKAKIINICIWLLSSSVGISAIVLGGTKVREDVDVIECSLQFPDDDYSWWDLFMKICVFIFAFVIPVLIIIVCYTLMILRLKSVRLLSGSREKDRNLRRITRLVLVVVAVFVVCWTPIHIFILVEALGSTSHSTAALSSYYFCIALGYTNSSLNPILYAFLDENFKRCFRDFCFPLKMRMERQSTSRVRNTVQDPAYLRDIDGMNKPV
Chain of Acetylcholinesterase (Homo sapiens) (P22303 whole entry): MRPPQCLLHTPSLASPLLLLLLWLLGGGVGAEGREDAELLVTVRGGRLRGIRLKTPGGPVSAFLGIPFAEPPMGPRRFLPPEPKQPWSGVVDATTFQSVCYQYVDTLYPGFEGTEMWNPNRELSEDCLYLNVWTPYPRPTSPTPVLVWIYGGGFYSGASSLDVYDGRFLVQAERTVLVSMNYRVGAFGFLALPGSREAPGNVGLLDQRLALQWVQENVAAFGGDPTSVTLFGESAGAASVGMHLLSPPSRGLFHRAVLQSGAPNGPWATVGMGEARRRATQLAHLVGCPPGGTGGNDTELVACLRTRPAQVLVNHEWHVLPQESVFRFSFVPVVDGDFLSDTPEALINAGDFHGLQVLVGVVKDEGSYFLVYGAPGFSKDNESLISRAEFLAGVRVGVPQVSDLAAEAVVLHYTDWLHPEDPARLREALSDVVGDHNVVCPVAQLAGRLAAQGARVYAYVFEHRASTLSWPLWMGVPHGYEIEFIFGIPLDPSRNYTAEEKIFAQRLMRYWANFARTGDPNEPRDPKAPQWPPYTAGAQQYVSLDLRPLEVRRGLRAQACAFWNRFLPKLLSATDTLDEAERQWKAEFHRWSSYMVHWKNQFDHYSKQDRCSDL
Chain of Alpha-2C adrenergic receptor (Homo sapiens) (P18825 whole entry): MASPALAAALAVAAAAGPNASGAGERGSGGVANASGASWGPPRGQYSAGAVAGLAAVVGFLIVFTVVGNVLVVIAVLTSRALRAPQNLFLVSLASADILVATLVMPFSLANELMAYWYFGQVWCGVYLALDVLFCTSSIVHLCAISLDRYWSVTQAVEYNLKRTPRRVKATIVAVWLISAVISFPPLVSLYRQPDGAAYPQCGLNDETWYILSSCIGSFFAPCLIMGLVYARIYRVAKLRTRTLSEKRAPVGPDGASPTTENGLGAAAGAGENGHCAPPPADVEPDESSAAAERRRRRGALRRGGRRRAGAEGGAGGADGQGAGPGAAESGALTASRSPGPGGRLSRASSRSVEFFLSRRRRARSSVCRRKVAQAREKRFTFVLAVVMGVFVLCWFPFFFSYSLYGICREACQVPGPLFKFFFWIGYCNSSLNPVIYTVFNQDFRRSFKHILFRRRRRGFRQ
Chain of cGMP-inhibited 3',5'-cyclic phosphodiesterase 3A (Homo sapiens) (Q14432 whole entry): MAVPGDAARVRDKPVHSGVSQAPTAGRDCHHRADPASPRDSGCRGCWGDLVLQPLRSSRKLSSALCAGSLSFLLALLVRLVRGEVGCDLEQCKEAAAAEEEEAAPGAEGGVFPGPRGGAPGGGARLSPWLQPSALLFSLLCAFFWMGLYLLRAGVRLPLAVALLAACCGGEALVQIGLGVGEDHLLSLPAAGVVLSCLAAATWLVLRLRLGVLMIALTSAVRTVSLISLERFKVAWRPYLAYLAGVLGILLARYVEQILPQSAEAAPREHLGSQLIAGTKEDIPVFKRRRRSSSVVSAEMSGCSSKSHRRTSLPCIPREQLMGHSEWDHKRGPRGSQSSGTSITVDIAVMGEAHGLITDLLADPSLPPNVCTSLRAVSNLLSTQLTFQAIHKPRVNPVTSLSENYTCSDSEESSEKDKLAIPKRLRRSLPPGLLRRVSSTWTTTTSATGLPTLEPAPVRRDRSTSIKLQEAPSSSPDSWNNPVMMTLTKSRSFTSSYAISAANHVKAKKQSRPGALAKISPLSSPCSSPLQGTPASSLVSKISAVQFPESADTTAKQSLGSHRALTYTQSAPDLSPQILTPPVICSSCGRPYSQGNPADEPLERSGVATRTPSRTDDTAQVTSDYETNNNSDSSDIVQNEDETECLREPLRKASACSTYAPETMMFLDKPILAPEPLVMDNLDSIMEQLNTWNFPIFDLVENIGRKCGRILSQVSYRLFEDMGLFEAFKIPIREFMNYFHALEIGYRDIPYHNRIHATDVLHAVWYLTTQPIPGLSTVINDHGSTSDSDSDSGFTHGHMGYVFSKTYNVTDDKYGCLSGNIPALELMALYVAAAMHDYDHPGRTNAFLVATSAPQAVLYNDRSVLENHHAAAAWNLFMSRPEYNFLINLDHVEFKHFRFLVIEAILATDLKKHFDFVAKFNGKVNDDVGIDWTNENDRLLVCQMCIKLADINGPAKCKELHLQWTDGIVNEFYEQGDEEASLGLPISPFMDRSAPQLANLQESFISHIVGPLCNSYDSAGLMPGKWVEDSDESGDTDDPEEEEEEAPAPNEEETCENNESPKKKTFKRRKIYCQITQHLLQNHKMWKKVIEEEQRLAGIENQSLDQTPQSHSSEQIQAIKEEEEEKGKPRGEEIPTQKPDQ

**Q.** Which results are given for `CC(C)(O)[C@H]1CC[C@H](NC(=O)c2cnc3nc(C4CC4)ccc3c2)CC1`?
**A.** Kp at 384 h [1]: 0.56; IC50 [2]: > 100000 nM; inhibition [3]: inactive; Kp at 1032 h [4]: 0.56; half-life [5]: > 3 h; Activity [6]: Toxic; clearance [7]: 9 mL/min/kg; inhibition (INH) [8]: Not Active; Activity [9]: Non-Toxic; Papp at 3 h [10]: 4.4 ×10⁻⁶ cm/s; inhibition (INH) [11]: Not Active; Cmax [12]: 210 µg/mL; fraction unbound [13]: 0.2; IC50 [14]: 9.4 nM; AUC at 96 h [15]: 3600 µg·h/mL; inhibition [16]: inactive; Activity [17]: Toxic; Activity [18]: Non-Toxic; AUC at 96 h [19]: 120 µg·h/mL; solubility at 4 h [20]: 140 µg/mL (≈ 396 µM); Cmax [21]: 8.7 µg/mL; inhibition [22]: inactive; inhibition [23]: inactive; inhibition [24]: inactive; inhibition [25]: inactive; Kp [26]: 0.06; Activity [27]: Toxic; inhibition [28]: inactive; inhibition [29]: inactive; EC50 [30]: 42 nM; EC50 [31]: 2.6 nM; half-life [32]: 6.2 h; inhibition [33]: inactive; Activity [34]: Toxic; Ratio EC50 [35]: 10; Activity [36]: Toxic; Activity [37]: Non-Toxic; inhibition [38]: inactive; Activity [39]: Non-Toxic; inhibition [40]: inactive
